From US20260216347A1, “Substituted Imidazo-Based Compounds as Ligand Directed Degraders of IRAK3” (Celgene Corporation, priority 2022, published 2026) come the findings set out here.

The target in test [1] is T1, IRAK3 (Homo sapiens, UniProt Q9Y616).
T1 construct: IRAK Endogenous HTRF Degradation Assay; endogenous in cells
T1 sequence (Q9Y616 1-596): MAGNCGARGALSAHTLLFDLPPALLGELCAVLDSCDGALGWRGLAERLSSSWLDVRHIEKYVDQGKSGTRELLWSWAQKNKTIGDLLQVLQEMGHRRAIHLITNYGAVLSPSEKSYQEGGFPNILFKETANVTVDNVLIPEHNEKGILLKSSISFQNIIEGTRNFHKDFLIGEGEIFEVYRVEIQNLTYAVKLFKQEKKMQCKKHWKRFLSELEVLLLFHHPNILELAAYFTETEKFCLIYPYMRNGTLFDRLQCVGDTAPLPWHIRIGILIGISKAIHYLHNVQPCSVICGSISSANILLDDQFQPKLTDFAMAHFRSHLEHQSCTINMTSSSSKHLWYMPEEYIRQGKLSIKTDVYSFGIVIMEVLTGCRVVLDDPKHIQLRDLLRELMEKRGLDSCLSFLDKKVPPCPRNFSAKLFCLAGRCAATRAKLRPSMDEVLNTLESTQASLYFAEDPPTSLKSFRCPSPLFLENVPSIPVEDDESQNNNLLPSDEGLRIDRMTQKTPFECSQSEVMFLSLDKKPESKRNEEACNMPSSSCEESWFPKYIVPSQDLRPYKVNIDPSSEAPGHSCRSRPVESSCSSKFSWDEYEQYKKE
Briefly: IRAK endogenous HTRF degradation assay (Total-IRAK3 HTRF kit). The class given is cell-based. The settings on record: overnight incubation, lowest percentage of protein remaining. A digest of the protocol:
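Cells (~50 k) incubated overnight with 3-fold serial dilutions of compound, then lysed; total IRAK3 read by HTRF (665/615 nm ratio ×10,000), normalized to DMSO as 100%. EC50 from four-parameter logistic fit; Dmax = 100 − Ymin (lowest % protein remaining); DC50 = concentration giving 50% degradation.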
Background: In TR-FRET formats the signal depends on donor and acceptor labels being close together.

For test [2], the target named is T1, IRAK3. Kind of test: IRAK3 biochemical binding assay (LanthaScreen Eu Kinase Binding, TR-FRET). The procedure, abridged:
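TR-FRET tracer-displacement binding with 10 nM IRAK3, 2 nM Eu-anti-GST antibody and 10 nM tracer in 50 mM HEPES pH 7.4, MgCl2, 1 mM EGTA, 0.01% Brij-35. Compounds in 3-fold dilutions, 1 h at room temperature. 665/615 nm ratio gave % inhibition; IC50 and Hill slope from dose-response fit.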

As for `Cc1cc(-c2cnc(Nc3cnn(C4CCN(CCN5CCN(c6cccc(C7CCC(=O)NC7=O)c6)CC5)CC4)c3)c3nccn23)c(F)cc1F` (stereo not shown) [Compound 31, 3-(3-(4-(2-(4-(4-((5-(2,4-difluoro-5-methylphenyl)imdazo [1,2-a]pyrazin-8-yl)amino)-1H-pyrazol-1-yl)piperidin-1-yl)ethyl)piperazin-1-yl)phenyl) piperidine-2,6-dione], on IRAK3 [1], the “IRAK3 HTRF degradation Ymin” value is recorded as 40%. In addition, the IC50 (commonly the concentration at which inhibition is half-maximal) at IRAK3 [2] amounted to 6.1 nM.

On to `Cc1cccc(-c2cnc(Nc3cnn(C4CCN(CCN5CCN(c6ccc7c(c6)C(=O)N(C6CCC(=O)NC6=O)C7=O)CC5)CC4)c3)c3nccn23)c1` (stereo not shown) [Compound 2, 2-(2,6-dioxopiperidin-3-yl)-5-(4-(2-(4-(4-((5-(m-tolyl)imidazo[1,2-a]pyrazin-8-yl)amino)-1H-pyrazol-1-yl)piperidin-1-yl)ethyl)piperazin-1-yl)isoindoline-1,3-dione], for which, at IRAK3 [1], the “IRAK3 HTRF degradation Ymin” value is listed as 18%. Moreover, at IRAK3 [2], the IC50 came to 4.2 nM.

`Cc1cc(-c2cnc(Nc3cnn([C@H]4CC[C@@H](CN5CCN(c6ccc(C7CCC(=O)NC7=O)cc6)CC5)CC4)c3)c3nccn23)c(F)cc1F` (relative stereo) [Compound 71, 3-(4-(4-(((cis)-4-(4-((5-(2,4-difluoro-5-methylphenyl)imidazo[1,2-a]pyrazin-8-yl)amino)-1H-pyrazol-1-yl)cyclohexyl)methyl)piperazin-1-yl)phenyl) piperidine-2,6-dione]: the “IRAK3 HTRF degradation Ymin” value at IRAK3 [1] is given as 13%. Further, the IC50 on IRAK3 [2] came out at 2.8 nM.

Turning to `Cc1cc(-c2cnc(Nc3cnn([C@H]4CCN(CCN5CCN(c6ccc(C7CCC(=O)NC7=O)cc6)C[C@H]5C)[C@@H](C)C4)c3)c3nccn23)c(F)cc1F` (stereo partly drawn) [Compound 35, 3-(4-((R)-4-(2-((2S,4S)-4-(4-((5-(2,4-difluoro-5-methylphenyl)imdazo [1,2-a]pyrazin-8-yl)amino)-1H-pyrazol-1-yl)-2-methylpiperidin-1-yl)ethyl)-3-methylpiperazin-1-yl)phenyl) piperidine-2,6-dione], the “IRAK3 HTRF degradation Ymin” value at IRAK3 [1] was determined as 7.6%. This compound also returned a half-maximal inhibitory concentration (IC50) on IRAK3 [2] of 0.65 nM.

Consider `Cc1cc(-c2cnc(Nc3cnn(C4CCN(CC(=O)N5CCN(c6ccc7c(c6)C(=O)N(C6CCC(=O)NC6=O)C7=O)CC5)CC4)c3)c3nccn23)c(F)cc1F` (stereo not shown) [Compound 6, 5-(4-(2-(4-(4-((5-(2,4-difluoro-5-methylphenyl)imidazo[1,2-a]pyrazin-8-yl)amino)-1H-pyrazol-1-yl)piperidin-1-yl)acetyl)piperazin-1-yl)-2-(2,6-dioxopiperidin-3-yl)isoindoline-1,3-dione], for which the “IRAK3 HTRF degradation Ymin” value at IRAK3 [1] is listed as 23%. On IRAK3 [2], this compound registered an IC50 of 1 nM.

`Cc1cc(-c2cnc(Nc3cnn([C@H]4CCN(CCN5CCN(c6ccc(C7CCC(=O)NC7=O)cc6)CC5)C[C@@H]4F)c3)c3nccn23)c(F)cc1F` (stereo partly drawn) [Compound 72, 3-(4-(4-(2-((3S,4S)-4-(4-((5-(2,4-difluoro-5-methylphenyl)imdazo [1,2-a]pyrazin-8-yl)amino)-1H-pyrazol-1-yl)-3-fluoropiperidin-1-yl)ethyl)piperazin-1-yl)phenyl) piperidine-2,6-dione]: on IRAK3 [1], the “IRAK3 HTRF degradation Ymin” value was 8.3%. Also, the IC50 at IRAK3 [2] is 1.2 nM.

Take `O=C1CCC(c2ccc(N3CCN(CCN4CCC(n5cc(Nc6ncc(-c7ccccc7F)n7ccnc67)cn5)CC4)CC3)cc2)C(=O)N1` (stereo not shown) [Compound 75, 3-(4-(4-(2-(4-(4-((5-(2-fluorophenyl)imidazo [1,2-a]pyrazin-8-yl)amino)-1H-pyrazol-1-yl)piperidin-1-yl)ethyl)piperazin-1-yl)phenyl) piperidine-2,6-dione]: at IRAK3 [1], the “IRAK3 HTRF degradation Ymin” value is given as 9.8%. This compound also gave an IC50 on IRAK3 [2] of 14 nM.

`Cc1cccc(-c2cnc(Nc3cnn(C4CCN(CCCN5CCN(c6ccc(C7CCC(=O)NC7=O)cc6)CC5)CC4)c3)c3nccn23)c1` (stereo not shown) [Compound 4, 3-(4-(4-(3-(4-(4-((5-(m-tolyl)imidazo[1,2-a]pyrazin-8-yl)amino)-1H-pyrazol-1-yl)piperidin-1-yl)propyl)piperazin-1-yl)phenyl) piperidine-2,6-dione]: the “IRAK3 HTRF degradation Ymin” value on IRAK3 [1] is recorded as 17%. The compound also had an IC50 at IRAK3 [2] of 2.3 nM.

Regarding `Cc1cccc(-c2cnc(Nc3cnn(C4CCN(CC(=O)N5CCN(c6ccc7c(c6)CN(C6CCC(=O)NC6=O)C7=O)CC5)CC4)c3)c3nccn23)c1` (stereo not shown) [Compound 19, 3-(1-oxo-5-(4-(2-(4-(4-((5-(m-tolyl)imidazo[1,2-a]pyrazin-8-yl)amino)-1H-pyrazol-1-yl)piperidin-1-yl)acetyl)piperazin-1-yl)isoindolin-2-yl)piperidine-2,6-dione], on IRAK3 [1], the “IRAK3 HTRF degradation Ymin” value is reported as 18%. The compound further registered an IC50 at IRAK3 [2] of 1.8 nM.

On to `Cc1cccc(-c2cnc(Nc3cnn(C4CCN(CC(=O)N5CCN(c6ccc7c(c6)C(=O)N(C6CCC(=O)NC6=O)C7=O)CC5)CC4)c3)c3nccn23)c1` (stereo not shown) [Compound 1, 2-(2,6-dioxopiperidin-3-yl)-5-(4-(2-(4-(4-((5-(m-tolyl)imidazo[1,2-a]pyrazin-8-yl)amino)-1H-pyrazol-1-yl)piperidin-1-yl)acetyl)piperazin-1-yl)isoindoline-1,3-dione], for which the “IRAK3 HTRF degradation Ymin” value at IRAK3 [1] came to 27%. The same compound showed an IC50 at IRAK3 [2] of 5 nM.

Consider `O=C1CCC(c2ccc(N3CCN(CCN4CCC(n5cc(Nc6ncc(-c7ccc(F)cc7)n7ccnc67)cn5)CC4)CC3)cc2)C(=O)N1` (stereo not shown) [Compound 74, 3-(4-(4-(2-(4-(4-((5-(4-fluorophenyl)imidazo [1,2-a]pyrazin-8-yl)amino)-1H-pyrazol-1-yl)piperidin-1-yl)ethyl)piperazin-1-yl)phenyl) piperidine-2,6-dione], for which the “IRAK3 HTRF degradation Ymin” value on IRAK3 [1] is 9.8%. Further, the IC50 at IRAK3 [2] came out at 5.6 nM.

On to `Cc1cc(-c2cnc(Nc3cnn([C@H]4CC[C@H](CCN5CCN(c6ccc([C@]7(C)CCC(=O)NC7=O)cc6)CC5)CC4)c3)c3nccn23)c(F)cc1F` [Compound 82, (S)-3-(4-(4-(2-((trans)-4-(4-((5-(2,4-difluoro-5-methylphenyl)imidazo[1,2-a]pyrazin-8-yl)amino)-1H-pyrazol-1-yl)cyclohexyl)ethyl)piperazin-1-yl)phenyl)-3-methylpiperidine-2,6-dione], for which the “IRAK3 HTRF degradation Ymin” value at IRAK3 [1] is 40%. Besides, the IC50 on IRAK3 [2] is 17 nM.

For `Cc1cc(-c2cnc(Nc3cnn(C4CCN(CCN5CCN(c6ccc([C@@]7(C)CCC(=O)NC7=O)cc6)CC5)CC4)c3)c3nccn23)c(F)cc1F` [Compound 77, (R)-3-(4-(4-(2-(4-(4-((5-(2,4-difluoro-5-methylphenyl)imdazo [1,2-a]pyrazin-8-yl)amino)-1H-pyrazol-1-yl)piperidin-1-yl)ethyl)piperazin-1-yl)phenyl)-3-methylpiperidine-2,6-dione], at IRAK3 [1], the “IRAK3 HTRF degradation Ymin” value is 8.3%. On IRAK3 [2], this compound yielded a half-maximal inhibitory concentration (IC50) of 2 nM.

On to `Cc1cccc(-c2cnc(Nc3cnn(C4CCN(CCCCN5CCN(c6ccc(C7CCC(=O)NC7=O)cc6)CC5)CC4)c3)c3nccn23)c1` (stereo not shown) [Compound 3, 3-(4-(4-(4-(4-(4-((5-(m-tolyl)imidazo[1,2-a]pyrazin-8-yl)amino)-1H-pyrazol-1-yl)piperidin-1-yl)butyl)piperazin-1-yl)phenyl) piperidine-2,6-dione], for which the “IRAK3 HTRF degradation Ymin” value at IRAK3 [1] was 11%. The compound also came in with a 50% inhibitory concentration (IC50) at IRAK3 [2] of 1.3 nM.

Consider `Cc1cc(-c2cnc(Nc3cnn(C4CCN(CCN5CCN(c6ccc(C7CCC(=O)NC7=O)cc6)C[C@@H]5C)CC4)c3)c3nccn23)c(F)cc1F` (stereo partly drawn) [Compound 7, 3-(4-((S)-4-(2-(4-(4-((5-(2,4-difluoro-5-methylphenyl)imdazo [1,2-a]pyrazin-8-yl)amino)-1H-pyrazol-1-yl)piperidin-1-yl)ethyl)-3-methylpiperazin-1-yl)phenyl) piperidine-2,6-dione], for which the “IRAK3 HTRF degradation Ymin” value at IRAK3 [1] amounted to 12%. On IRAK3 [2], this compound yielded a 50% inhibitory concentration (IC50) of 1.5 nM.

As to `Cc1cc(-c2cnc(Nc3cnn(C4CCN(CCN5CCN(c6ccc(C7CCC(=O)NC7=O)cc6)CC5)CC4)c3)c3nccn23)c(F)cc1F` (stereo not shown) [Compound 8, 3-(4-(4-(2-(4-(4-((5-(2,4-difluoro-5-methylphenyl)imidazo[1,2-a]pyrazin-8-yl)amino)-1H-pyrazol-1-yl)piperidin-1-yl)ethyl)piperazin-1-yl)phenyl)piperidine-2,6-dione], on IRAK3 [1], the “IRAK3 HTRF degradation Ymin” value is on record as 9%. At IRAK3 [2], this compound had an IC50 of 1.3 nM.

As to `Cc1cc(-c2cnc(Nc3cnn([C@H]4CC[C@H](CCN5CCN(c6ccc([C@@]7(C)CCC(=O)NC7=O)cc6)CC5)CC4)c3)c3nccn23)c(F)cc1F` [Compound 81, (R)-3-(4-(4-(2-((trans)-4-(4-((5-(2,4-difluoro-5-methylphenyl)imidazo[1,2-a]pyrazin-8-yl)amino)-1H-pyrazol-1-yl)cyclohexyl)ethyl)piperazin-1-yl)phenyl)-3-methylpiperidine-2,6-dione], on IRAK3 [1], the “IRAK3 HTRF degradation Ymin” value was 7.8%. For the same compound, on IRAK3 [2], the IC50 stood at 10 nM.
